These results are taken from PubChem BioAssay AID222 (DTP/NCI, 2004).

Where “and” joins values, the source holds several entries; their conditions need not be identical. Identical values can stand only once. Toxic doses and inconclusive results are not listed.

The assay has as its system C57BL/6 mice, intracerebral ependymoblastoma, median survival T/C. In words: NCI In Vivo Anticancer Drug Screen. Data for tumor model Ependymoblastoma (intracerebral) in C57BL/6 mice. Conditions: endpoint: median survival time, higher = longer survival. As to the method:
The antitumor activity of compounds was measured in mice bearing transplantable tumors. Survival or tumor size were measured and the results are expressed as the measurement made in the treated group (T) divided by the measurement made in the vehicle treated control group (C). The tumor model used in this assay is Ependymoblastoma (intracerebral) in C57BL/6 mice

[1] abbreviates: dose: 4.0 mg/kg/injection, schedule: Q01DX005 (ip), vehicle: Klucel (hydroxypropylcellulose) (HPC).
Setting [2] is: dose: 8.0 mg/kg/injection, schedule: Q01DX005 (ip), vehicle: Klucel (hydroxypropylcellulose) (HPC).
The mark [3] stands for this setting: dose: 32.0 mg/kg/injection, schedule: Q01DX005 (ip), vehicle: Klucel (hydroxypropylcellulose) (HPC).
Where [4] appears, read: dose: 64.0 mg/kg/injection, schedule: Q01DX005 (ip), vehicle: Klucel (hydroxypropylcellulose) (HPC).

In the case of `O=NN(CCCl)C(=O)NC1CCC(=O)NC1=O` (configuration not stated), the T/C by setting is: (dose: 0.5 mg/kg/injection, schedule: Q01DX005 (ip), vehicle: Klucel (hydroxypropylcellulose) (HPC)) 103 % of control; (dose: 0.5 mg/kg/injection, schedule: Q01DX005 (ip), vehicle: suspension in saline) 118 % of control; (dose: 0.62 mg/kg/injection, schedule: Q01DX001 (ip), vehicle: other) 100 % of control; (dose: 1.0 mg/kg/injection, schedule: Q01DX005 (ip), vehicle: Klucel (hydroxypropylcellulose) (HPC)) 100 % of control; (dose: 1.0 mg/kg/injection, schedule: Q01DX005 (ip), vehicle: suspension in saline) 114 % of control; (dose: 1.25 mg/kg/injection, schedule: Q01DX001 (ip), vehicle: other) 101 % of control. The T/C is 104 % of control (dose: 1.75 mg/kg/injection, schedule: Q01DX001 (ip), vehicle: other); 100 % of control and 111 % of control (dose: 2.0 mg/kg/injection, schedule: Q#A X002 (ip), vehicle: saline); 100 % of control (dose: 2.5 mg/kg/injection, schedule: Q01DX001 (ip), vehicle: other); 102 % of control and 104 % of control (dose: 3.5 mg/kg/injection, schedule: Q01DX001 (ip), vehicle: other); 95 % of control (dose: 3.5 mg/kg/injection, schedule: Q01DX001 (ip), vehicle: saline with Tween-80); 106 % of control (dose: 4.0 mg/kg/injection, schedule: Q01DX001 (ip), vehicle: saline with Tween-80). In addition, the T/C is 290 % of control under setting [1]; 298 % of control (dose: 4.0 mg/kg/injection, schedule: Q01DX005 (ip), vehicle: suspension in saline); 98 % of control and 99 % of control (dose: 4.0 mg/kg/injection, schedule: Q#A X002 (ip), vehicle: saline); 119 % of control (dose: 5.0 mg/kg/injection, schedule: Q01DX001 (ip), vehicle: other); 161 % of control (dose: 5.0 mg/kg/injection, schedule: Q01DX001 (oral), vehicle: other); 113 % of control and 119 % of control (dose: 7.0 mg/kg/injection, schedule: Q01DX001 (ip), vehicle: other). Besides, the T/C reads like this: (dose: 8.0 mg/kg/injection, schedule: Q01DX001 (ip), vehicle: saline with Tween-80) 106 % of control; under setting [2], 281 % of control; (dose: 8.0 mg/kg/injection, schedule: Q#A X002 (ip), vehicle: saline) 102 % of control; (dose: 10.0 mg/kg/injection, schedule: Q01DX001 (ip), vehicle: other) 162 % of control; (dose: 10.0 mg/kg/injection, schedule: Q01DX001 (oral), vehicle: other) 210 % of control; (dose: 10.0 mg/kg/injection, schedule: Q07DX003 (ip), vehicle: saline) 318 % of control. For the same compound, the T/C reads like this: (dose: 14.0 mg/kg/injection, schedule: Q01DX001 (ip), vehicle: saline with Tween-80) 102 % of control; (dose: 16.0 mg/kg/injection, schedule: Q01DX001 (ip), vehicle: saline with Tween-80) 104 % of control; (dose: 16.0 mg/kg/injection, schedule: Q01DX001 (oral), vehicle: Klucel (hydroxypropylcellulose) (HPC)) 106 % of control; (dose: 16.0 mg/kg/injection, schedule: Q#A X002 (ip), vehicle: saline) 102 % of control and 112 % of control; (dose: 20.0 mg/kg/injection, schedule: Q01DX001 (oral), vehicle: other) 90 % of control; (dose: 20.0 mg/kg/injection, schedule: Q07DX003 (ip), vehicle: saline) 117 % of control. For the same compound, the T/C (dose: 28.0 mg/kg/injection, schedule: Q01DX001 (ip), vehicle: other) is 100 % of control and 103 % of control; the T/C (dose: 28.0 mg/kg/injection, schedule: Q01DX001 (ip), vehicle: saline with Tween-80) was 93 % of control; the T/C (dose: 32.0 mg/kg/injection, schedule: Q01DX001 (ip), vehicle: saline with Tween-80) was 105 % of control; the T/C (dose: 32.0 mg/kg/injection, schedule: Q01DX001 (oral), vehicle: Klucel (hydroxypropylcellulose) (HPC)) is 102 % of control; the T/C (dose: 32.0 mg/kg/injection, schedule: Q#A X002 (ip), vehicle: saline) was 100 % of control; the T/C (dose: 56.0 mg/kg/injection, schedule: Q01DX001 (ip), vehicle: other) was 88 % of control. Also, the T/C by setting is: (dose: 56.0 mg/kg/injection, schedule: Q01DX001 (ip), vehicle: saline with Tween-80) 93 % of control; (dose: 64.0 mg/kg/injection, schedule: Q01DX001 (ip), vehicle: saline with Tween-80) 109 % of control; (dose: 64.0 mg/kg/injection, schedule: Q01DX001 (oral), vehicle: Klucel (hydroxypropylcellulose) (HPC)) 100 % of control; (dose: 128.0 mg/kg/injection, schedule: Q01DX001 (oral), vehicle: Klucel (hydroxypropylcellulose) (HPC)) 102 % of control; (dose: 256.0 mg/kg/injection, schedule: Q01DX001 (oral), vehicle: Klucel (hydroxypropylcellulose) (HPC)) 104 % of control.
On to `CC(C)=CCC1=C(O)c2ccccc2C(=O)C1=O`, for which the T/C was 100 % of control under setting [3]; 94 % of control under setting [4]; 97 % of control (dose: 128.0 mg/kg/injection, schedule: Q01DX005 (ip), vehicle: Klucel (hydroxypropylcellulose) (HPC)).
For the compound `OCCN1CCN(CC/C=C2/c3ccccc3Sc3ccc(C(F)(F)F)cc32)CC1`, the T/C by setting is: (dose: 12.5 mg/kg/injection, schedule: Q04DX003 (ip), vehicle: saline) 115 % of control; (dose: 25.0 mg/kg/injection, schedule: Q04DX003 (ip), vehicle: saline) 117 % of control.
For `O=C(CCCN1CCC(O)(c2cccc(C(F)(F)F)c2)CC1)c1ccc(F)cc1`, the T/C (dose: 25.0 mg/kg/injection, schedule: Q04DX003 (ip), vehicle: Klucel (hydroxypropylcellulose) (HPC)) is 103 % of control and the T/C (dose: 50.0 mg/kg/injection, schedule: Q04DX003 (ip), vehicle: Klucel (hydroxypropylcellulose) (HPC)) was 97 % of control.
As for `O=C1C(=O)c2ccccc2C(O)=C1CC=C(Cl)Cl`, the T/C is, setting by setting: under setting [1], 102 % of control and 109 % of control; under setting [2], 100 % of control and 122 % of control; (dose: 16.0 mg/kg/injection, schedule: Q01DX005 (ip), vehicle: Klucel (hydroxypropylcellulose) (HPC)) 104 % of control and 113 % of control; under setting [3], 107 % of control and 108 % of control; under setting [4], 101 % of control and 105 % of control.
As to `O=c1[nH]cc(F)c(=O)[nH]1`, the T/C is, setting by setting: (dose: 2.0 mg/kg/injection, schedule: Q01DX005 (ip), vehicle: saline) 113 % of control; (dose: 2.5 mg/kg/injection, schedule: Q01DX005 (ip), vehicle: saline) 101 % of control; (dose: 4.0 mg/kg/injection, schedule: Q01DX005 (ip), vehicle: saline) 108 % of control; (dose: 5.0 mg/kg/injection, schedule: Q01DX005 (ip), vehicle: saline) 94 % of control; (dose: 8.0 mg/kg/injection, schedule: Q01DX005 (ip), vehicle: saline) 97 % of control; (dose: 10.0 mg/kg/injection, schedule: Q01DX005 (ip), vehicle: saline) 97 % of control. The T/C reads like this: (dose: 16.0 mg/kg/injection, schedule: Q01DX005 (ip), vehicle: saline) 106 % of control; (dose: 20.0 mg/kg/injection, schedule: Q01DX005 (ip), vehicle: saline) 95 % of control; (dose: 32.0 mg/kg/injection, schedule: Q01DX005 (ip), vehicle: saline) 106 % of control.
In the case of `OC(CCl)CN1CC[N+]2(CC1)CC[N+]1(CCN(CC(O)CCl)CC1)CC2` (configuration not stated), the T/C (dose: 40.0 mg/kg/injection, schedule: Q01DX005 (ip), vehicle: saline) is 109 % of control and 117 % of control.
For the compound `ClC(Cl)=C(Cl)Cl`, the T/C is 111 % of control (dose: 22.0 mg/kg/injection, schedule: Q01DX005 (ip), vehicle: saline with Tween-80); 90 % of control (dose: 45.0 mg/kg/injection, schedule: Q01DX005 (ip), vehicle: saline with Tween-80); 88 % of control and 92 % of control (dose: 90.0 mg/kg/injection, schedule: Q01DX005 (ip), vehicle: saline with Tween-80).
For the compound `Nc1ncnc2nc[nH]c12`, under “dose: 128.0 mg/kg/injection, schedule: Q01DX005 (ip), vehicle: saline with Tween-80”, the T/C was 92 % of control.
